Data from patent publication US20200268728A1, “DRUG TARGETING CANCER STEM CELL” (Sumitomo Dainippon Pharma Co., Ltd., priority 2016, published 2020).
Where a name gives a salt, the structure may show the parent alone. Read-outs that look alike come from different tables or passages of the source.

Columns and labels:
[1] = test system: LNCap cells; assay: Combination with Example 24, inhibitory effect on sphere-forming ability (Test Example 6); assay type: cell-based; details: LNCap sphere culture, test compound combined with Example 24 (2-1000 nmol/L), 4 days
Protocol: After the culture, CellTiterGlo (Promega) was added into all of the wells, and the plate is allowed to stand at room temperature for 10 minutes to measure the intensity of luminescence of each well. […] The formula for calculating the rate is shown below.
Sphere formation rate (%)=(Lsample)/(Lcontrol)×100
The value obtained by dividing the sphere formation rate by 100 and subtracting the calculated value from 1 is defined as a sphere formation inhibitory effect. The formula for calculating the effect is shown below.
Sphere formation inhibitory effect=1−(Sphere formation rate/100)
Also, the measured cell survival rate of the combination was defined as (Ld).
The minimum value thereof (sCI) was used as the criteria for screening.

[2] = test system: HCT-116 cells; assay: Anti-tumor effect to HCT-116 tumor-bearing mouse (Test Example 2); assay type: in vivo; details: oral, read-out: T/C (%); for response vs control in vivo at 150 mg/kg: dosage 150 mg/kg
Source text: The present compound can be used to evaluate the anti-tumor effect thereof. A 4 to 7-week-old nude mouse (BALB/cAnNCrj-nu/nu, female, CHARLES RIVER LABORATORIES JAPAN, INC.) received intradermal transplantation of HCT-116 cells (ATCC) in an amount of 3×10^6 cells/mouse around the ventral portion. The engraftment of HCT-116 cells was observed 5 to 14 days after the transplantation, and then each compound suspended in a solvent such as 0.5% methylcellulose solution was orally administrated to the mouse in a dose of 1 to 200 mg/kg one to twice daily. The tumor volume was measured over time after the administration to evaluate the effect for reducing the tumor volume by the administration of each compound. The tumor volume can be calculated from the minor axis and the major axis of the tumor measured with a digital caliper (Mitutoyo) according to the following formula:
Tumor volume [mm^3]=0.5×minor axis [mm]×(major axis [mm])^2
The tumor volume in control administration group treated with only a solvent such as 0.5% methylcellulose solution was compared with that of the present compound administration group, and T/C value was calculated according the following formula to evaluate the anti-tumor effect of the present compound.
T/C(%)=(the tumor volume at the end of administration in the present compound administration group−the tumor volume at the start of administration in the present compound administration group)/(the tumor volume at the end of administration in the control administration group−the tumor volume at the start of administration in the control administration group)×100
The T/C values (%) of the present compound on each dosage and administration period in the HCT-116 tumor-bearing mouse are shown below.

[3] = HCT-116, 456 h, administration period 19 day

CC(O)(CS(=O)(=O)c1ccc(F)cc1)C(=O)Nc1ccc(C#N)c(C(F)(F)F)c1 (centres unmarked) [Bicalutamide]
sCI, minimum (Ld)/(Lc) [1]: 0.421

CNC(=O)c1ccc(N2C(=S)N(c3ccc(C#N)c(C(F)(F)F)c3)C(=O)C2(C)C)cc1F [Enzalutamide]
sCI, minimum (Ld)/(Lc) [1]: 0.826

O=C(/C=C/c1cccnc1)Nc1cn(Cc2cccc(Cl)c2)cn1 [Example 9-2, (2E)-N-(1-(3-Chlorobenzyl)-1H-imidazol-4-yl)-3-(pyridin-3-yl)prop-2-enamide dihydrochloride]
response vs control in vivo at 150 mg/kg ([2]; HCT-116, 384 h, administration period 16 day): 65%

COc1ccc(C(=O)Nc2cn(Cc3cccc(Cl)c3)cn2)cc1OC [Example 10-2, N-[1-(3-Chlorobenzyl)-1H-imidazol-4-yl]-3,4-dimethoxybenzamide hydrochloride]
response vs control in vivo at 150 mg/kg [2, 3]: 53%

COc1ccc(C(=O)Nc2cn(Cc3ccc(F)c(F)c3)cn2)cc1OC [Example 11-2]
response vs control in vivo at 150 mg/kg [2, 3]: 52%

COc1ccc(C(=O)Nc2cn(Cc3cc(F)cc(F)c3)cn2)cc1OC [Example 12-2]
response vs control in vivo at 150 mg/kg [2, 3]: 84%

COc1ccc(C(=O)Nc2cn(Cc3cc(F)c(F)c(F)c3)cn2)cc1OC [Example 13-2]
response vs control in vivo at 15 mg/kg ([2]; HCT-116, 528 h, dosage 15 mg/kg, administration period 22 day): 72% | response vs control in vivo at 150 mg/kg ([2]; HCT-116, 528 h, administration period 22 day): 45%
